In patent US20230058623A1, “NOVEL HETEROARYL-TRIAZOLE COMPOUNDS AS PESTICIDES” (Bayer Aktiengesellschaft, priority 2019, published 2023):

Columns and labels:
Type in all cases: in vivo
[1] = tested on: adult brown dog ticks (Rhipicephalus sanguineus); assay: Rhipicephalus sanguineus in-vitro contact test, adult brown dog ticks; settings: application rate 5 μg/cm^2 (=500 g/ha), after 48 hours, read-out: activity (efficacy: ticks dead or moribund)
Method in brief: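 Contact exposure: dried compound film inside glass tubes, dose 5 μg/cm^2 at 900 ppm, 5-10 adults per tube at room temperature. Scored at 48 h via a heat-escape test on a 45-50° C plate for up to 5 min.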

[2] = tested on: brown planthopper (Nilaparvata lugens); assay: Nilaparvata lugens spray test; settings: 96 h, after 4 days, rice plants; for mortality at 500 g/ha: application rate 500 g/ha
Protocol: Nilaparvata lugens—Spray Test
To produce a suitable preparation of active compound, 1 part by weight of active compound is mixed with the stated amount of solvents and is diluted with water, containing an emulsifier concentration of 1000 ppm, to the desired concentration. Further test concentrations are prepared by dilution with emulsifier containing water.
Rice plants (Oryza sativa) are sprayed with a preparation of the active ingredient of the desired concentration and the plants are infested with the brown planthopper (Nilaparvata lugens).
After 4 days mortality in % is determined. 100% means all planthoppers have been killed and 0% means none of the planthoppers have been killed.

[3] = tested on: larvae of the southern green stink bug (Nezara viridula); assay: Nezara viridula spray test; settings: 96 h, after 4 days, barley plants; for mortality at 500 g/ha: application rate 500 g/ha, read-out: activity (mortality); for mortality at 100 g/ha: application rate 100 g/ha
Method in brief: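 Barley plants sprayed with the active compound in emulsifier-containing water, then infested with stink bug larvae. Mortality scored in % after 4 days, with 100% meaning all insects killed.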

[4] = tested on: Rhipicephalus (Boophilus) microplus larvae (strain Parkhurst, resistant against synthetic pyrethroids); assay: Rhipicephalus (Boophilus) microplus in-vitro contact test, larval cattle tick; settings: after 48 hours, read-out: activity (efficacy: larvae dead or moribund); for pest or weed control at 1 µg/cm2, 100 g/ha: application rate 1 μg/cm^2 (=100 g/ha); for pest or weed control at 5 µg/cm2, 500 g/ha: application rate 5 μg/cm^2 (=500 g/ha)
Method in brief: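 Pyrethroid-resistant Parkhurst larvae, 20–50 per tube, were kept 48 h at 27 °C and 85% relative humidity in glass tubes whose inner walls carried a dried acetone film of compound (900 ppm giving 5 μg/cm^2). Dead or moribund larvae, judged by loss of negative geotactic behavior, set percent efficacy.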

[5] = tested on: fall armyworm larvae (Spodoptera frugiperda); assay: Spodoptera frugiperda spray test; settings: 168 h, application rate 100 g/ha, after 7 days, maize leaf sections
Method in brief: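 Seven-day percent mortality of larvae feeding on Zea mays leaf sections sprayed with test compound. Dilutions were made in water holding 1000 ppm emulsifier.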

[6] = tested on: larvae of the banded cucumber beetle (Diabrotica balteata); assay: Diabrotica balteata spray test; settings: 168 h, application rate 100 g/ha (=32 μg/well), after 7 days, wheat seeds, read-out: activity (efficacy: seedlings grown)
Method in brief: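 Efficacy (%) read 7 days after infesting treated seedlings with 10-20 banded cucumber beetle larvae, 100% meaning growth as in uninfected untreated control and 0% no growth. Test solutions in water containing 1000 ppm emulsifier were sprayed onto wheat seeds germinated for 1 day on agar.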

[7] = tested on: adult engorged female ticks (Rhipicephalus microplus); assay: Rhipicephalus (Boophilus) microplus injection test; settings: 168 h, application rate 4 μg/tick, egg deposition after 7 days, read-out: activity (efficacy: infertile eggs)
Method in brief: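 Abdominal injection, 1 μL compound/DMSO, n=5 engorged adult females; climate-chamber incubation. Readout d7: fertile egg laying; doubtful eggs held to hatch (~42 d). % efficacy = infertile eggs (100% all infertile).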

[8] = tested on: adult unfed cat fleas (Ctenocephalides felis); assay: Ctenocephalides felis oral test; settings: 48 h, read-out: activity (mortality)
Protocol: Ctenocephalides felis—Oral Test
Solvent: dimethyl sulfoxide
To produce a suitable preparation of active compound, 10 mg of active compound are dissolved in 0.5 mL solvent, and the concentrate is diluted with citrated cattle blood to the desired concentration.
Approximately 20 adult unfed cat fleas (Ctenocephalides felis) are placed in a flea chamber whose top and bottom is covered with gauze. A chamber whose bottom is sealed with parafilm, is filled with the blood-compound solution and placed on top of the flea chamber, so that the fleas can suck the blood. The blood chamber is heated to 37° C. whereas the flea chamber is kept at room temperature.
After 2 days mortality in % is determined. 100% means all the fleas have been killed; 0% means none of the fleas have been killed.

[9] = tested on: adult cat fleas (Ctenocephalides felis); assay: Ctenocephalides felis in-vitro contact test, adult cat flea; settings: application rate 5 μg/cm^2 (=500 g/ha), after 48 hours, read-out: activity (efficacy: fleas dead or moribund)
Method in brief: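 After 48 h of room-temperature exposure in tubes whose walls carried dried compound residue (5 μg/cm^2, from 900 ppm acetone solution), adult cat fleas (5-10 per tube) were heat-challenged at 45-50° C up to 5 min. Fleas unable to climb away were counted dead or moribund, expressed as % efficacy.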

[10] = tested on: green peach aphid (Myzus persicae); assay: Myzus persicae spray test; settings: foliar, 120 h, after 5 days, Chinese cabbage leaf disks; for mortality at 100 g/ha: application rate 100 g/ha, read-out: activity (mortality)
Method in brief: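 Percent kill was recorded 5 days after spraying. Test solutions, prepared with solvent and diluted in 1000 ppm emulsifier water, were applied to Brassica pekinensis leaf disks carrying mixed-instar green peach aphids.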

[11] = tested on: green peach aphid (Myzus persicae); assay: Myzus persicae oral test; settings: 120 h, read-out: activity (mortality)
Method in brief: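 Five-day oral feeding assay measuring percent mortality of a mixed aphid population that draws compound-containing sugared IPL41 medium through sealing parafilm; the test preparation derives from 1 part compound per 100 parts acetone, diluted with water.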

[12] = tested on: adult mosquitoes Aedes aegypti strain MONHEIM; assay: Aedes aegypti test (AEDSAE surface treatment & contact assay); settings: surface concentration 20 mg/m^2, exposure 30 minutes, 24 hours after contact, read-out: efficacy (mortality)
Protocol: Aedes aegypti Test (AEDSAE Surface Treatment & Contact Assay)
(§1) Solvent: Aceton+2000 ppm rapeseed oil methyl ester (RME)
(§2) In order to produce a sufficient, active ingredient containing solution it is necessary to solve the test compound in the solvent-mix (acetone at 2 mg/ml/RME 2000 ppm). This solution is pipetted onto a glazed tile and after evaporation of the acetone, adult mosquitoes of the species Aedes aegypti strain MONHEIM are placed onto the dried surface. The exposure time is 30 minutes.
(§3) Mortality in percent (%) is determined 24 hours after contact of the insects to the treated surface. 100% mortality means that all tested insects are dead, whereas 0% means that no insect died.

[13] = tested on: adult flies Musca domestica strain WHO-N; assay: Musca domestica test (MUSCDO surface treatment & contact assay); settings: 24 hours after contact, read-out: efficacy (mortality)
Protocol: Musca domestica Test (MUSCDO Surface Treatment & Contact Assay)
as §1
as §2, with “flies” for “mosquitoes”, “Musca domestica” for “Aedes aegypti”, “WHO-N” for “MONHEIM”
as §3

SMILES	pest or weed control at 5 µg/cm2, 500 g/ha [1] [%]	mortality at 500 g/ha [2] [%]	mortality at 500 g/ha [3] [%]	pest or weed control at 1 µg/cm2, 100 g/ha [4] [%]	pest or weed control at 5 µg/cm2, 500 g/ha [4] [%]	mortality at 100 g/ha [5] [%]	pest or weed control at 32 µg/disc, 100 g/ha [6] [%]	pest or weed control at 0.004 mg [7] [%]	mortality at 100 g/ha [3] [%]	mortality at 100 ppm [8] [%]	pest or weed control at 5 µg/cm2 [9] [%]	mortality at 100 g/ha [10] [%]	mortality at 4 ppm [11] [%]	mortality at 20 mg/m2 [12] [%]	mortality at 500 g/ha ([10]; application rate 500 g/ha) [%]	mortality at 4 mg/m2 ([13]; surface concentration 4 mg/m^2, exposure 30 minutes) [%]	mortality at 20 mg/m2 ([13]; surface concentration 20 mg/m^2, exposure 30 minutes) [%]	mortality at 100 g/ha ([2]; application rate 100 g/ha) [%]
Cc1nc([C@H](C)NC(=O)c2cc(C(F)(F)F)cc(C(F)(F)F)c2)n(-c2ccc(C(=O)N3CC(C)(C)OC(C)(C)C3)cn2)n1 [Example I-78]	100	100	100	100	100	100												
Cc1nc([C@H](C)NC(=O)c2cc(C(F)(F)F)cc(C(F)(F)F)c2)n(-c2ccc(C(=O)N3C[C@H](C)O[C@@H](C)C3)cn2)n1 [Example I-95]	100			100	100	100	100	100	100	100	100							
C[C@H](NC(=O)c1cc(C(F)(F)F)cc(C(F)(F)F)c1)c1ncnn1-c1ncc(C(=O)N2CCCC2)cn1 [Example I-147]		90				100	100					100						
C[C@@H]1CN(C(=O)c2ccc(-n3ncnc3[C@H](C)NC(=O)c3cc(Cl)cc(C(F)(F)F)c3)nc2)C[C@@H](C)O1 [Example I-40]	100			100	100		100	100		90		90	100	80 to 100				
C[C@H](NC(=O)c1cc(Cl)cc(S(C)(=O)=O)c1)c1ncnn1-c1ccc(C(=O)N2C[C@H](C)O[C@@H](C)C2)cn1 [Example I-122]		90	100						90		80		100		90			
Cc1nc([C@H](C)NC(=O)c2cc(OC(F)(F)F)cc(C3CC3)c2)n(-c2ccc(C(=O)N3C[C@@H](C)O[C@@H](C)C3)cn2)n1 [Example I-115]	100			90	90		80	100		100	100	90	100			80 to 100	80 to 100	
C[C@@H]1CN(C(=O)c2cnc(-n3ncnc3[C@H](C)NC(=O)c3cc(OC(F)(F)F)cc(S(C)(=O)=O)c3)nc2)C[C@H](C)O1 [Example I-145]		100					100											
CCc1nc([C@H](C)NC(=O)c2cc(Br)cc(OC(F)(F)F)c2)n(-c2ccc(C(=O)N3CCOCC3)cn2)n1 [Example I-134]		100	100			100	100					90						
C[C@H](NC(=O)c1cc(Cl)cc(C(F)(F)F)c1)c1ncnn1-c1ccc(C(=O)N2CCOC[C@H]2C)cn1 [Example I-33]	100			100	100	100		100	90	100								
Cc1nc([C@H](C)NC(=O)c2cc(Cl)cc(C(F)(F)F)c2)n(-c2ccc(C(=O)N3CC(F)C3)cn2)n1 [Example I-20]	100			90	100	100		100		100	100	90	100	80 to 100				
C[C@H](NC(=O)c1cc(Cl)cc(C(F)(F)F)c1)c1ncnn1-c1ccc(N2CCCC2=O)cn1 [Example I-54]													100					100
Cc1nc([C@H](C)NC(=O)c2cc(Cl)cc(C(F)(F)F)c2)n(-c2ccc(C(=O)N3CCC3)cn2)n1 [Example I-23]	100			90	90	100		100		90	100	90	100	80 to 100				
COC1CN(C(=O)c2ccc(-n3nc(C)nc3[C@H](C)NC(=O)c3cc(Cl)cc(C(F)(F)F)c3)nc2)C1 [Example I-24]	100			100	100	100		100		80	90	100	100	80 to 100				
C[C@H](NC(=O)c1cc(C(F)(F)F)cc(C(F)(F)F)c1)c1ncnn1-c1ccc(C(=O)N2CC(=O)NC(=O)C2)cn1 [Example I-80]		90	100															
